From patent publication US6437128B1, “Cribrostatins 3-5” (Arizona Board of Regents, priority 2001, dated 2002) come the findings set out here.

As a reminder, the GI50 is the concentration that inhibits growth by half. As usually defined, the melting point is the temperature, or range, at which the solid turns liquid.

In brackets after ≈: the same amount, converted by molar mass. Several values for one entry are separate records, joined by “and”; a condition that tells them apart may be missing. Equal values may be shown once.

One series has as its system COLO 205. Briefly: NCI 60-cell screen. The format is cell-based, human. The following applies: Homo sapiens, averaged, quadruplicate, upper limit 10^−5 M, read-out: negative log10 GI50 (converted).
For the next series, the system named is SR. As to the kind of experiment: NCI 60-cell screen. The following applies: Homo sapiens, averaged, quadruplicate, upper limit 10^−5 M, read-out: negative log10 GI50 (converted). The format is cell-based, human.
The subject of series [1] is Stenotrophomonas maltophilia (ATCC 13637). As to the kind of experiment: Antimicrobial disk diffusion. The format is cell-based.
A further series relates to SK-MEL-5. As to the kind of experiment: NCI 60-cell screen. The format is cell-based, human. The conditions noted are these: Homo sapiens, averaged, quadruplicate, upper limit 10^−5 M, read-out: negative log10 GI50 (converted).
A further series deals with HOP-62. As to the kind of experiment: NCI 60-cell screen. The format is cell-based, human. The conditions noted are these: Homo sapiens, averaged, quadruplicate, upper limit 10^−5 M, read-out: negative log10 GI50 (converted).
The next series relates to CCRF-CEM. As to the kind of experiment: NCI 60-cell screen. The format is cell-based, human. The conditions noted are these: Homo sapiens, averaged, quadruplicate, upper limit 10^−5 M, read-out: negative log10 GI50 (converted).
The test system of the next series is OVCAR-8. Briefly: NCI 60-cell screen. The format is cell-based, human. The conditions noted are these: Homo sapiens, averaged, quadruplicate, upper limit 10^−5 M, read-out: negative log10 GI50 (converted).
For series [2], the system named is Escherichia coli (ATCC 25922). As to the kind of experiment: Antimicrobial disk diffusion. The format is cell-based. A general note: In agar diffusion tests the substance spreads into inoculated agar from a disc or well.
Another series concerns HL-60 (TB). As to the kind of experiment: NCI 60-cell screen. The format is cell-based, human. The conditions noted are these: Homo sapiens, averaged, quadruplicate, upper limit 10^−5 M, read-out: negative log10 GI50 (converted).
For series [3], the system named is Invasive S. pneumoniae (clinical isolate). As to the kind of experiment: Antimicrobial disk diffusion. The format is cell-based.
The test system of series [4] is Enterobacter cloacae (ATCC 13047). As to the kind of experiment: Antimicrobial disk diffusion. The format is cell-based.
Series [5] deals with P388 lymphocytic leukemia. Briefly: in vitro murine P388 lymphocytic leukemia (PS) cell growth inhibition. The format is cell-based. The source says:
The fractions obtained from the 1988-89 recollection of Cribrochalina so. (See: Pettit, G. R.; Collins, J. C.; Herald, D. L.; Doubek, D. L.; Boyd, M. R.; Schmidt, J. M.; Hooper, J. N. A.; Tackett, L. P. Can. J. Cheim. 1992, 70, 1170-1175) beginning with the 195 g dichloromethane partition fraction were re-examined guided by bioassay results using the murine P388 lymphocytic leukemia.
Individual cell line response values are provided in the Experimental.

The next series has as its system OVCAR-3. Briefly: NCI 60-cell screen. The format is cell-based, human. The conditions noted are these: Homo sapiens, averaged, quadruplicate, upper limit 10^−5 M, read-out: negative log10 GI50 (converted).
For series [6], the system named is Streptococcus pneumoniae (ATCC 6303). As to the kind of experiment: Antimicrobial disk diffusion. The format is cell-based. The conditions noted are these: listed as 5.
In the next series the test system is NCI-H522. As to the kind of experiment: NCI 60-cell screen. The format is cell-based, human. The conditions noted are these: Homo sapiens, averaged, quadruplicate, upper limit 10^−5 M, read-out: negative log10 GI50 (converted).
For another series, the system named is SW-620. As to the kind of experiment: NCI 60-cell screen. The following applies: Homo sapiens, averaged, quadruplicate, upper limit 10^−5 M, read-out: negative log10 GI50 (converted). The format is cell-based, human.
A further series concerns SN12C. Briefly: NCI 60-cell screen. The format is cell-based, human. The following applies: Homo sapiens, averaged, quadruplicate, upper limit 10^−5 M, read-out: negative log10 GI50 (converted).
Series [7] deals with Neisseria gonorrhoeae (ATCC 49226). Briefly: Antimicrobial disk diffusion. The format is cell-based.
A further series concerns U251. As to the kind of experiment: NCI 60-cell screen. The format is cell-based, human. The following applies: Homo sapiens, U-251, averaged, quadruplicate, upper limit 10^−5 M, read-out: negative log10 GI50 (converted).
Another series has as its system RPMI-8226. Briefly: NCI 60-cell screen. The format is cell-based, human. The conditions noted are these: Homo sapiens, averaged, quadruplicate, upper limit 10^−5 M, read-out: negative log10 GI50 (converted).
In series [8] the test system is Micrococcus luteus (Presque Isle 456). Briefly: Antimicrobial disk diffusion. The format is cell-based. The conditions noted are these: listed as 5.
The test system of the next series is KM 12. As to the kind of experiment: NCI 60-cell screen. The format is cell-based, human. The conditions noted are these: Homo sapiens, KM12, averaged, quadruplicate, upper limit 10^−5 M, read-out: negative log10 GI50 (converted).

On to `C/C=C(/C)C(=O)OC[C@H]1C2=C(C=C3[C@H]4c5c(O)c(OC)c(C)c(O)c5C(=O)[C@@H](C(=O)N31)N4C)C(=O)C(C)=C(OC)C2=O` [Cribrostatin 4, cribrostatin 4], for which the melting point was 190 to 192 °C (dec.). Moreover, the concentration for 50% growth inhibition (GI50) in the series with COLO 205 was 8.13 µM. Further, the GI50 in the series with SR was 3.8 µM. Moreover, the Minimum inhibitory concentration entry in series [1] is “* (No inhibition at 100 μg/disk)”. For the same compound, the GI50 with SK-MEL-5 was 8.13 µM. Further, the GI50 in the series with HOP-62 was 7.59 µM. In the series with CCRF-CEM, the concentration for 50% growth inhibition (GI50) is 1.7 µM. Besides, the 50% growth inhibitory concentration (GI50) in the series with OVCAR-8 was 4.27 µM. Also, the Minimum inhibitory concentration result in series [2] is on record as “* (No inhibition at 100 μg/disk)”. The GI50 in the series with HL-60 (TB) is 5.37 µM. Also, the Minimum inhibitory concentration result in [3] is recorded as “* (No inhibition at 100 μg/disk)”. Besides, in [4], the Minimum inhibitory concentration result is listed as “* (No inhibition at 100 μg/disk)”. Moreover, the concentration for 50% growth inhibition (GI50) in series [5] (Mouse Leukemia P388, read-out: GI50) worked out at 24.6 µg/mL (≈ 42.5 µM). The “PS ED50 (P388 ED50)” value in series [5] (in vitro P388 lymphocytic leukemia, listed as cribrostatin 4) is 25 µg/mL and 24 µg/mL. Further, in the series with OVCAR-3, the concentration for 50% growth inhibition (GI50) was 3.63 µM. For the same compound, the Minimum inhibitory concentration in series [6] is 6.25-12.5 μg/disk. Moreover, the 50% growth inhibitory concentration (GI50) in the series on NCI-H522 was 4.17 µM. In the series on SW-620, the GI50 was 6.92 µM. Also, the concentration for 50% growth inhibition (GI50) in the series on SN12C was 7.08 µM. Also, the Minimum inhibitory concentration in series [7] was 6.25-12.5 μg/disk. In the series with U251, the 50% growth inhibitory concentration (GI50) is 6.46 µM. In addition, in the series on RPMI-8226, the 50% growth inhibitory concentration (GI50) is 6.17 µM. For the same compound, the Minimum inhibitory concentration result in [8] was “* (No inhibition at 100 μg/disk)”. For the same compound, in the series on KM 12, the GI50 was 9.12 µM.
